According to US20140194498A1, “POLYISOPRENYLATED TETRACYCLIC XANTHONE WITH ANTICANCER ACTIVITY” (Hong Kong Baptist University, priority 2013, published 2014):
“Also recorded” adds a separate entry of the source. Where two headings read alike, the source gives them in different places.

Assays:
[1] = tested on: SMMC-7721 (human hepatocellular carcinoma); test: cells
Method: (§1) To determine the cytotoxicity of garciesculentone B, its IC50 values on HepG2, SMMC-7721, MCF-7, and MDA-MB-231 cell lines are measured. […] In addition, further study is taken to test whether garciesculentone B can exert effects on cell motility. A wound healing assay using ECA109 cells is performed in this regard.
(§2) Cytotoxicity Assay. Cytotoxic activitiy of garciesculentone B were evaluated by MTT assay using SMMC-7721 (human hepatocellular carcinoma), HepG2 (human hepatocellular carcinoma), MCF-7 (human breast adenocarcinoma), and MDA-MB-231 (human breast adenocarcinoma). Paclitaxel was used as positive control. The detailed methodology for cytotoxicity assay has already been described in Xia, Z.-X.; Zhang, D.-D.; Liang, S.; Lao, Y.-Z.; Zhang, H.; Tan, H.-S.; Chen, S.-L.; Wang, X.-H.; Xu, H.-X., Bioassay-Guided Isolation of Prenylated Xanthones and Polycyclic Acylphloroglucinols from the Leaves of Garcinia nujiangensis. Journal of Natural Products 2012.

[2] = tested on: HepG2 (human hepatocellular carcinoma)
Method: as §1, §2

[3] = tested on: MCF-7 (human breast adenocarcinoma); type: cell-based
Excerpt: (§3) Cytotoxicity Assay. […] Paclitaxel was used as positive control. […] Journal of Natural Products 2012.

[4] = tested on: MDA-MB-231 (human breast adenocarcinoma); type: cell-based
Excerpt: as §3

[5] = tested on: human esophageal carcinoma (ECA109) cells; test: Wound healing assay; type: cell-based
Method: Wound healing assay. A wound healing assay was performed by using a modified procedure described previously in Jones, J. I.; Gockerman, A.; Busby, W. H., Jr.; Wright, G.; Clemmons, D. R., Insulin-like growth factor binding protein 1 stimulates cell migration and binds to the alpha 5 beta 1 integrin by means of its Arg-Gly-Asp sequence. Proc Natl Acad Sci USA 1993, 90 (22), 10553-7. Briefly, cells were plated in 24 wells plate at 70% confluence in conditioned medium. 24 hours after seeding the monolayers were wounded by scoring with a sterile plastic 20 μL micropipette tip, then rinsed several times with media to remove cell debris and then incubated in completed medium in the absence or presence of tested compounds (10 and 20 μg/mL) for various periods of time up to 36 hours. Cell migration into the wound surface was monitored by Olympus IX71 microscopy and digitally photographed.

IC50 [1]	IC50 [2]	IC50 [3]	IC50 [4]	Compound	IC50 ([1]; Homo sapiens, SMMC-7721, read-out: Cytotoxicity IC50, SMMC-7721)	Cell migration into the wound area (antimigration effect) ([5]; 10 and 20 μg/mL)	Wound closure ([5]; up to 36 hours, control wound edges indistinguishable by 36 hours)
–	–	–	–	CC(=O)O[C@H]1C(=O)[C@@]2(C)[C@H]([C@H](OC(=O)c3ccccc3)[C@]3(O)C[C@H](OC(=O)[C@H](O)[C@@H](NC(=O)c4ccccc4)c4ccccc4)C(C)=C1C3(C)C)[C@]1(OC(C)=O)CO[C@@H]1C[C@@H]2O [Palcitaxel, Paclitaxel, reference compound]	0.0091 µM	–	–
11.8 µM	31.4 µM	23.7 µM	33.9 µM	garciesculentone B	–	significant delay in cells moving into the wound area; also recorded: shows antimigration effect on ECA109 cells	do not migrate into and completely close the wound
